This is an account of results in patent US12679878B2, “CRF2 receptor agonists and their use in therapy” (SANOFI, priority 2020, dated 2026).

One assay has as its target T1, human CRF2α receptor (Homo sapiens, UniProt Q13324).
T1 construct: expressed in transfected cells; host or cells: TeloHEAC
T1 sequence (Q13324 1-411): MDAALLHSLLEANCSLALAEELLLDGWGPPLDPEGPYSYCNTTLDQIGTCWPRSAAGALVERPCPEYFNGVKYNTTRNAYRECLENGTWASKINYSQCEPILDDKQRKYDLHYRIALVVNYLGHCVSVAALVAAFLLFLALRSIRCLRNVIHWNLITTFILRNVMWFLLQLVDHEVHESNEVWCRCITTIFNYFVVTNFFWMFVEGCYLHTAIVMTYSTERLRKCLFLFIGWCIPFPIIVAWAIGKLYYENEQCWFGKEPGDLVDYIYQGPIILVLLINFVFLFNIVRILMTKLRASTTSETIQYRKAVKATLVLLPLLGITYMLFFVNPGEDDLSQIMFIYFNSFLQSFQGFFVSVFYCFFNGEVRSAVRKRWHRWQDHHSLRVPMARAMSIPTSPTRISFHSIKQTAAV
In words: cAMP agonism at human CRF2α receptor in TeloHEAC cells, FA modified peptides (Example 19.9). The class given is cell-based. Conditions: 0% HSA, relative to urocortin 2. A digest of the protocol: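 Efficacy and EC50 are referenced to 100 nM urocortin 2 as 100%, with cAMP measured as the 665/620 nm HTRF ratio after 1 h at room temperature. Compounds (0.5 mM DMSO stock, 16 twofold dilutions) acted 30 min at 37 °C on CRF2α-expressing TeloHEAC cells, buffer containing IBMX and 0% or 0.2% HSA.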

Another assay deals with T2, CRF1R receptor (Homo sapiens, UniProt P34998).
T2 construct: host or cells: CHO-K1 clone 2
T2 sequence (P34998 24-415): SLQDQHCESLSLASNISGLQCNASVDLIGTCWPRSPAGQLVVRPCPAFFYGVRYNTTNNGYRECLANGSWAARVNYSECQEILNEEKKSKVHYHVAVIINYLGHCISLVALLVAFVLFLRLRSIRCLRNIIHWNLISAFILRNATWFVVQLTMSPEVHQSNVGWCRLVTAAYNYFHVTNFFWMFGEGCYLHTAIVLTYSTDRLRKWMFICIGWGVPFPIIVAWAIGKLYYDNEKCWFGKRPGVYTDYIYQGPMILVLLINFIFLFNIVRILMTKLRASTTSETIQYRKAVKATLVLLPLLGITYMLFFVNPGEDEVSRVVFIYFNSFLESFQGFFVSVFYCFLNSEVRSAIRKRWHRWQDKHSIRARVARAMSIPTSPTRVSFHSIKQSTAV
In words: cAMP activity at anti-target CRF1R, CHO-K1 cell line clone 2 (Example 19.10). The class given is cell-based. Conditions: ratio of CRF1 EC50 to CRF2 EC50. A digest of the protocol:
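A CRF1R-overexpressing CHO-K1 line (clone 2) was grown in F12/10% FBS/G418 and frozen in aliquots before use. The cAMP assay followed the preceding procedure, with 100% activation defined by Sauvagine at 100 nM.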

Starred links: 1 amine or outer side, 2 acyl side, 3 side chain; linkers in the order of their positions; H or OH if unused. Non-standard residues stand in square brackets, D forms with d. Residues, ends and D or L forms follow the SMILES beside them. Groups on a side chain read outwards from the residue. *: point of attachment. γGlu = O=C(O)[C@H](CCC(=O)[*:2])N[*:1]; Palmitoyl = CCCCCCCCCCCCCCCC(=O)*; Aib = CC(C)(N)C(=O)O

As for `CCCCCCCCCCCCCCCC(=O)N[C@@H](CCC(=O)NCCCC[C@H](NC(=O)[C@H](CC(C)C)NC(=O)[C@H](CCCCN)NC(=O)[C@@H](NC(=O)[C@@H]1CCCN1C(=O)[C@H](NC(=O)[C@H](CC(=O)O)NC(=O)[C@H](CC(C)C)NC(=O)[C@H](CO)NC(=O)[C@H](CC(C)C)NC(=O)[C@@H](NC(=O)[C@@H](N)[C@@H](C)CC)C(C)C)C(C)C)[C@@H](C)CC)C(=O)N[C@@H](CCC(N)=O)C(=O)N[C@H](C(=O)N[C@@H](CC(C)C)C(=O)N[C@@H](CC(C)C)C(=O)N[C@@H](CCCCN)C(=O)N[C@@H](CCC(N)=O)C(=O)N[C@@H](CCC(=O)O)C(=O)N[C@@H](CCCNC(=N)N)C(=O)N[C@@H](CCC(N)=O)C(=O)N[C@@H](CCCCN)C(=O)NC(C)(C)C(=O)N[C@@H](CCC(N)=O)C(=O)N[C@@H](CCCNC(=N)N)C(=O)N[C@@H](CCC(N)=O)C(=O)N[C@@H](CCC(N)=O)C(=O)N[C@@H](C)C(=O)N[C@@H](CCC(=O)O)C(=O)N[C@@H](CCCCN)C(=O)N[C@@H](CC(N)=O)C(=O)N[C@@H](CCCCN)C(=O)N[C@@H](CCC(N)=O)C(=O)N[C@H](C(=O)N[C@@H](CC(C)C)C(=O)N[C@@H](C)C(=O)N[C@@H](CCC(N)=O)C(=O)N[C@H](C(N)=O)C(C)C)[C@@H](C)CC)[C@@H](C)CC)C(=O)O` [compound 208] (H-IVLSLD[dV]PIKLK([γGlu-Palmitoyl])QILLKQERQK[Aib]QRQQAEKNKQILAQV-NH2; N-terminus assumed), it took 0.9 nM to reach a half-maximal effect at human CRF2α receptor (EC50). On CRF1R receptor, the CRF1/CRF2 ratio was found to be 2.
On human CRF2α receptor, `CCCCCCCCCCCCCCCC(=O)N[C@@H](CCC(=O)NCCCC[C@H](NC(=O)[C@H](CC(C)C)NC(=O)[C@H](CCCCN)NC(=O)[C@@H](NC(=O)[C@@H]1CCCN1C(=O)[C@H](NC(=O)[C@H](CC(=O)O)NC(=O)[C@H](CC(C)C)NC(=O)[C@H](CO)NC(=O)[C@H](CC(C)C)NC(=O)[C@@H](NC(=O)[C@@H](N)[C@@H](C)CC)C(C)C)C(C)C)[C@@H](C)CC)C(=O)N[C@@H](CCC(N)=O)C(=O)N[C@H](C(=O)N[C@@H](CC(C)C)C(=O)N[C@@H](CC(C)C)C(=O)N[C@@H](CCCCN)C(=O)N[C@@H](CCC(N)=O)C(=O)N[C@@H](CCC(=O)O)C(=O)N[C@@H](CCCNC(=N)N)C(=O)N[C@@H](CCC(N)=O)C(=O)N[C@@H](CCCCN)C(=O)N[C@@H](CCCCN)C(=O)NC(C)(C)C(=O)N[C@@H](CCCNC(=N)N)C(=O)N[C@@H](CCC(N)=O)C(=O)N[C@@H](CCCCN)C(=O)N[C@@H](C)C(=O)N[C@@H](CCC(=O)O)C(=O)N[C@@H](CCCCN)C(=O)N[C@@H](CC(N)=O)C(=O)N[C@@H](CCCCN)C(=O)N[C@@H](CCC(N)=O)C(=O)N[C@H](C(=O)N[C@@H](CC(C)C)C(=O)N[C@@H](C)C(=O)N[C@@H](CCC(N)=O)C(=O)N[C@H](C(N)=O)C(C)C)[C@@H](C)CC)[C@@H](C)CC)C(=O)O` [compound 209] (H-IVLSLD[dV]PIKLK([γGlu-Palmitoyl])QILLKQERQKK[Aib]RQKAEKNKQILAQV-NH2; N-terminus assumed) displayed a half-maximal effective concentration (EC50) of 8.62 nM. The CRF1/CRF2 ratio at CRF1R receptor came to 3.
`CCCCCCCCCCCCCCCC(=O)N[C@@H](CCC(=O)NCCCC[C@H](NC(=O)[C@H](CC(C)C)NC(=O)[C@H](CCCCN)NC(=O)[C@@H](NC(=O)[C@@H]1CCCN1C(=O)[C@H](NC(=O)[C@H](CC(=O)O)NC(=O)[C@H](CC(C)C)NC(=O)[C@H](CO)NC(=O)[C@H](CC(C)C)NC(=O)[C@@H](NC(=O)[C@@H](N)[C@@H](C)CC)C(C)C)C(C)C)[C@@H](C)CC)C(=O)N[C@@H](CCC(N)=O)C(=O)N[C@H](C(=O)N[C@@H](CC(C)C)C(=O)N[C@@H](CC(C)C)C(=O)N[C@@H](CCCCN)C(=O)N[C@@H](CCC(N)=O)C(=O)N[C@@H](CCC(=O)O)C(=O)N[C@@H](CCCNC(=N)N)C(=O)N[C@@H](CCC(N)=O)C(=O)N[C@@H](CCCCN)C(=O)N[C@@H](CCCCN)C(=O)N[C@@H](CCC(N)=O)C(=O)N[C@@H](CCCNC(=N)N)C(=O)N[C@@H](CCC(=O)O)C(=O)N[C@@H](CCC(N)=O)C(=O)N[C@@H](C)C(=O)N[C@@H](CCC(=O)O)C(=O)N[C@@H](CCCCN)C(=O)N[C@@H](CC(N)=O)C(=O)N[C@@H](CCCCN)C(=O)N[C@@H](CCC(N)=O)C(=O)N[C@H](C(=O)N[C@@H](CC(C)C)C(=O)N[C@@H](CCC(=O)O)C(=O)N[C@@H](CCC(N)=O)C(=O)N[C@H](C(N)=O)C(C)C)[C@@H](C)CC)[C@@H](C)CC)C(=O)O` [compound 212] (H-IVLSLD[dV]PIKLK([γGlu-Palmitoyl])QILLKQERQKKQREQAEKNKQILEQV-NH2; N-terminus assumed): the concentration for a half-maximal effect (EC50) on human CRF2α receptor came to 1.23 nM. The CRF1/CRF2 ratio at CRF1R receptor turned out to be 1.
In turn, `CCCCCCCCCCCCCCCC(=O)N[C@@H](CCC(=O)NCCCC[C@H](NC(=O)[C@H](CC(C)C)NC(=O)[C@H](CCCCN)NC(=O)[C@@H](NC(=O)[C@@H]1CCCN1C(=O)[C@H](NC(=O)[C@H](CC(=O)O)NC(=O)[C@H](CC(C)C)NC(=O)[C@H](CO)NC(=O)[C@H](CC(C)C)NC(=O)[C@@H](NC(=O)[C@@H](N)[C@@H](C)CC)C(C)C)C(C)C)[C@@H](C)CC)C(=O)N[C@@H](CCC(N)=O)C(=O)N[C@H](C(=O)N[C@@H](CC(C)C)C(=O)N[C@@H](CC(C)C)C(=O)N[C@@H](CCCCN)C(=O)N[C@@H](CCC(N)=O)C(=O)N[C@@H](CCC(=O)O)C(=O)N[C@@H](CCCNC(=N)N)C(=O)N[C@@H](CCC(N)=O)C(=O)N[C@@H](CCCCN)C(=O)N[C@@H](CCCCN)C(=O)N[C@@H](CCC(N)=O)C(=O)N[C@@H](CCCNC(=N)N)C(=O)N[C@@H](CCC(N)=O)C(=O)N[C@@H](CCC(N)=O)C(=O)N[C@@H](C)C(=O)N[C@@H](CCC(=O)O)C(=O)N[C@@H](CCCCN)C(=O)N[C@@H](CC(N)=O)C(=O)N[C@@H](CCCCN)C(=O)N[C@@H](CCC(N)=O)C(=O)N[C@H](C(=O)N[C@@H](CC(C)C)C(=O)N[C@@H](C)C(=O)N[C@@H](CCC(N)=O)C(=O)N[C@H](C(N)=O)C(C)C)[C@@H](C)CC)[C@@H](C)CC)C(=O)O` [compound 214] (H-IVLSLD[dV]PIKLK([γGlu-Palmitoyl])QILLKQERQKKQRQQAEKNKQILAQV-NH2; N-terminus assumed) returned a half-maximal effective concentration (EC50) at human CRF2α receptor of 4.15 nM. For the same molecule, at CRF1R receptor, the CRF1/CRF2 ratio came to 1.
Turning to `CCCCCCCCCCCCCCCC(=O)N[C@@H](CCC(=O)NCCCC[C@H](NC(=O)[C@H](CC(C)C)NC(=O)CNC(=O)[C@@H](NC(=O)[C@@H]1CCCN1C(=O)[C@H](NC(=O)[C@H](CC(=O)O)NC(=O)[C@H](CC(C)C)NC(=O)[C@H](CO)NC(=O)[C@H](CC(C)C)NC(=O)[C@@H](NC(=O)[C@@H](N)[C@@H](C)CC)C(C)C)C(C)C)[C@@H](C)CC)C(=O)N[C@@H](CCC(N)=O)C(=O)N[C@H](C(=O)N[C@@H](CC(C)C)C(=O)N[C@@H](CC(C)C)C(=O)N[C@@H](CCCCN)C(=O)N[C@@H](CCC(N)=O)C(=O)N[C@@H](CCC(=O)O)C(=O)N[C@@H](CCCNC(=N)N)C(=O)N[C@@H](CCC(N)=O)C(=O)N[C@@H](CCCCN)C(=O)N[C@@H](CCCCN)C(=O)NC(C)(C)C(=O)N[C@@H](CCCNC(=N)N)C(=O)N[C@@H](CCC(=O)O)C(=O)N[C@@H](CCC(N)=O)C(=O)N[C@@H](C)C(=O)N[C@@H](CCC(=O)O)C(=O)N[C@@H](CCCCN)C(=O)N[C@@H](CC(N)=O)C(=O)N[C@@H](CCCCN)C(=O)N[C@@H](CCCNC(=N)N)C(=O)N[C@H](C(=O)N[C@@H](CC(C)C)C(=O)N[C@@H](CCC(=O)O)C(=O)N[C@@H](CCCNC(=N)N)C(=O)N[C@H](C(N)=O)C(C)C)[C@@H](C)CC)[C@@H](C)CC)C(=O)O` [compound 218] (H-IVLSLD[dV]PIGLK([γGlu-Palmitoyl])QILLKQERQKK[Aib]REQAEKNKRILERV-NH2), the EC50 on human CRF2α receptor was determined as 1.58 nM. Moreover, on CRF1R receptor, the CRF1/CRF2 ratio stood at 4.

As a reminder, the EC50 is the concentration giving half of the maximal effect. A high value points to a less potent agent.
